One assay concerns the target T1, pY705-STAT3 in PBMC (Homo sapiens, UniProt P40763).
T1 construct: Cryopreserved Peripheral Blood Mononuclear Cells (PBMC) are from AllCells; host or cells: cryopreserved PBMC
Kind of assay: MSD-pSTAT-PBMC Assay (pSTAT3, IL-6 stimulated). It counts as cell-based. As to conditions: compound 3 hrs, then 10 ng/mL IL-6 for 10 min. The method, boiled down: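 Thawed human PBMC rested overnight in IMDM/10% FBS, then got compound for 3 hrs before a 10 min cytokine pulse: 1 ng/mL IL-4 for pSTAT6, 10 ng/mL IL-6 for pSTAT3. Lysates went to MSD sandwich capture on total STAT6 or STAT3 with phospho-specific detection. IC50 came from background-subtracted, DMSO-normalized signal.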

The target in another assay is T2, pY641-STAT6 in PBMC (Homo sapiens, UniProt P42226).
T2 construct: Cryopreserved Peripheral Blood Mononuclear Cells (PBMC) are from AllCells; host or cells: cryopreserved PBMC
T2 sequence (P42226 1-847): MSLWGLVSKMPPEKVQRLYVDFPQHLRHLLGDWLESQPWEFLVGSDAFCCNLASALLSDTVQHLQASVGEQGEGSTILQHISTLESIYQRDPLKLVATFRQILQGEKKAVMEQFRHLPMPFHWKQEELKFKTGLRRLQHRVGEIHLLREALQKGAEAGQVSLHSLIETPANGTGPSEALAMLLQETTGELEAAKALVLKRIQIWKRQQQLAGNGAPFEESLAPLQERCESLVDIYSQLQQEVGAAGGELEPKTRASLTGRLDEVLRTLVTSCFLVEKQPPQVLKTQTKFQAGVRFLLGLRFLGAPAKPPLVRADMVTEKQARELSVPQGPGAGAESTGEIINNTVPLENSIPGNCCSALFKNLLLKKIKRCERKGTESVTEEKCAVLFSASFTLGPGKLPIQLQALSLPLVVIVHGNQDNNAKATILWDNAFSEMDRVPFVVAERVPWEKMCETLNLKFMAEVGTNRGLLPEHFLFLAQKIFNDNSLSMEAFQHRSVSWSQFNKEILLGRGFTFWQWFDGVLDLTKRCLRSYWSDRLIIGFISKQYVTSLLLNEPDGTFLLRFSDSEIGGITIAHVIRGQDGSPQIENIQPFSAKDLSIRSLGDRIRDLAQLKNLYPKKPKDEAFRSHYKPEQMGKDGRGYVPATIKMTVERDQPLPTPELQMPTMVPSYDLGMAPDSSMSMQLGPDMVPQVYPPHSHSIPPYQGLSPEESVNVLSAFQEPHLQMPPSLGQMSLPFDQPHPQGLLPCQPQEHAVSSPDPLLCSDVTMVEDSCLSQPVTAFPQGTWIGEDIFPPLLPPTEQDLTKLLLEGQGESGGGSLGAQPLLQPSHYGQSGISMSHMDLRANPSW
The assay can be described thus: MSD-pSTAT-PBMC Assay (pSTAT6, IL-4 stimulated). It counts as cell-based. Particulars: compound 3 hrs, then 1 ng/mL IL-4 for 10 min. The method, boiled down: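 Cells are preincubated with compound for 3 hrs, then stimulated for 10 min, IL-4 at 1 ng/mL driving STAT6 phosphorylation and IL-6 at 10 ng/mL driving STAT3. Phospho-STAT in lysates is quantified by MSD immunoassay, and IC50 is fitted after subtracting unstimulated wells.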

Setting [1] is: PBMC, Table 115, read-out: STAT3.
Setting [2] is: PBMC, Table 115, read-out: STAT6.
Setting [3] is: PBMC, Table 1114, read-out: pSTAT3.
The mark [4] stands for this setting: PBMC, Table 1114, read-out: pSTAT6.

Like-named read-outs stand apart in the source and are kept apart here. Some results are limits rather than exact numbers.

T1 sequence (P40763 whole entry): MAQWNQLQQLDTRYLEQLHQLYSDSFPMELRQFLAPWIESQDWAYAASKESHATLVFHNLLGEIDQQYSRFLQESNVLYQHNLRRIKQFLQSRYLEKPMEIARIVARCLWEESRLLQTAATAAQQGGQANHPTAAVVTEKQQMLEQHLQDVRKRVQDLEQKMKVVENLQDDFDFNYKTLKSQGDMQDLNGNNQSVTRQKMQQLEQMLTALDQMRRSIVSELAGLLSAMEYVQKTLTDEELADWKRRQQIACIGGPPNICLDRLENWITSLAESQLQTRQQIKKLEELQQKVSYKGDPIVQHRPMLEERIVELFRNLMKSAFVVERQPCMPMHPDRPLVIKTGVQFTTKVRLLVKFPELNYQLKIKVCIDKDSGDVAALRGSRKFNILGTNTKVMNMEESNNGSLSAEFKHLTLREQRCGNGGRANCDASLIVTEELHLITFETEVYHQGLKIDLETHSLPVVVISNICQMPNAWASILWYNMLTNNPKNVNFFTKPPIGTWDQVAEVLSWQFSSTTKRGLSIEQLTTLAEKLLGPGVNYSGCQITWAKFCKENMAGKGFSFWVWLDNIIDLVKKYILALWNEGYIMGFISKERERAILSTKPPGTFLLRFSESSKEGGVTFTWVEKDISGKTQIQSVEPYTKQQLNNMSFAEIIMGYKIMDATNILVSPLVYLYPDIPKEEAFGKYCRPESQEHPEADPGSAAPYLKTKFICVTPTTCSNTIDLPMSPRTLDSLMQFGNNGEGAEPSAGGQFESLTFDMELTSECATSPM

For `CC(C)CC(=O)SCCOP(=O)(OCOC(=O)O[C@H]1CCOC1)C(F)(F)c1ccc2sc(C(=O)N[C@H]3CCCC[C@H]4CC[C@@H](C(=O)N5C[C@H](c6cc[nH]c(=O)c6)[C@@H](C#N)C5)N4C3=O)cc2c1` (single isomer, unassigned) [Compound 1097], the IC50 at pY705-STAT3 in PBMC (setting [1]) was 1 to 3 µM; on pY641-STAT6 in PBMC (setting [2]), 0.1 to 1 µM.

Turning to `CC(C)CC(=O)SCCOP(=O)(OCOC(=O)OC(C)C)C(F)(F)c1ccc2ccc(C(=O)N[C@H]3CCCC[C@H]4CC[C@@H](C(=O)N5C[C@H](c6cc[nH]c(=O)c6)[C@@H](C#N)C5)N4C3=O)cc2c1` (single isomer, unassigned) [Compound 1100], the IC50 was 0.1 to 1 µM on pY705-STAT3 in PBMC (setting [1]) and under 0.1 µM at pY641-STAT6 in PBMC (setting [2]).

On to `CCCOC(=O)[C@H](C)NP(=O)(Oc1ccccc1)C(F)c1ccc2sc(C(=O)N[C@H]3CCCC[C@H]4CC[C@@H](C(=O)N5C[C@@H](c6cccnc6)CC56CC6)N4C3=O)cc2c1` (stereo in doubt) [Compound 457, propyl (((R)-fluoro(2-(((3S,6S,10aS)-5-oxo-3-((R)-6-(pyridin-3-yl)-4-azaspiro[2.4]heptane-4-carbonyl)decahydropyrrolo[1,2-a]azocin-6-yl)carbamoyl)benzo [b]thiophen-5-yl)methyl)(phenoxy)phosphoryl)-L-alaninate], for which the IC50 was over 3 µM at pY705-STAT3 in PBMC (setting [1]) and under 0.1 µM on pY641-STAT6 in PBMC (STAT6, PBMC, Table 115).

As for `CC(C)(C)C(=O)SCCOP(=O)(OCCSC(=O)C(C)(C)C)C(F)(F)c1ccc2sc(C(=O)N[C@H]3CC4(CC[C@H]5CC[C@@H](C(=O)N6CC(c7cccnc7)C6)N5C3=O)CC4)cc2c1` [Compound 130, S,S′-((((difluoro(2-(((3′S,6′S,10a′S)-5′-oxo-3′-(3-(pyridin-3-yl)azetidine-1-carbonyl)octahydro-5′H-spiro [cyclopropane-1,8′-pyrrolo[1,2-a]azocin]-6′-yl)carbamoyl)benzo[b]thiophen-5-yl)methyl)phosphoryl)bis (oxy))bis (ethane-2,1-diyl)) bis(2,2-dimethylpropane-thioate)], the IC50 at pY705-STAT3 in PBMC (setting [3]) is under 0.1 µM; at pY641-STAT6 in PBMC (setting [4]), over 3 µM.

Turning to `CCCC(=O)SCCOP(=O)(OCCSC(=O)CCC)C(F)(F)c1ccc2sc(C(=O)N[C@H]3CCCC[C@H]4CC[C@@H](C(=O)N(C)c5ccc6nnccc6c5)N4C3=O)cc2c1` [Compound 131, S,S′-(((((2-(((3S,6S,10aS)-3-(cinnolin-6-yl(methyl)carbamoyl)-5-oxodecahydro-pyrrolo[1,2-a]azocin-6-yl)carbamoyl)benzo[b]thiophen-5-yl)difluoromethyl)phosphoryl)bis (oxy))bis(ethane-2,1-diyl)) dibutanethioate], the IC50 on pY705-STAT3 in PBMC (setting [3]) is 0.1 to 1 µM; on pY641-STAT6 in PBMC (setting [4]), under 0.1 µM.

Turning to `CC(C)(C)C(=O)SCCOP(=O)(OCCSC(=O)C(C)(C)C)C(F)(F)c1ccc2sc(C(=O)N[C@H]3CCC4(CC4)C[C@H]4CC[C@@H](C(=O)N5CC(c6cccnc6)C5)N4C3=O)cc2c1` [Compound 132, S,S′-((((difluoro(2-(((3′S,6′S,10a′R)-5′-oxo-3′-(3-(pyridin-3-yl)azetidine-1-carbonyl)octahydro-1′H-spiro [cyclopropane-1,9′-pyrrolo[1,2-a]azocin]-6′-yl)carbamoyl)benzo[b]thiophen-5-yl)methyl)phosphoryl)bis (oxy))bis(ethane-2,1-diyl))bis(2,2-dimethylpropane-thioate)], the results for the IC50 at pY705-STAT3 in PBMC (setting [3]) and at pY641-STAT6 in PBMC (setting [4]) were under 0.1 µM and over 3 µM, respectively.

On to `CCCC(=O)SCCOP(=O)(Oc1ccccc1)C(F)(F)c1ccc2sc(C(=O)N[C@H]3CCC[C@H]4CC[C@@H](C(=O)N5CC(c6cccnc6)C5)N4C3=O)cc2c1` (stereo partly drawn) [Compound 136, S-(2-(((difluoro(2-(((3S,6S,9aS)-5-oxo-3-(3-(pyridin-3-yl)azetidine-1-carbonyl)octahydro-1H-pyrrolo[1,2-a]azepin-6-yl)carbamoyl)benzo[b]thiophen-5-yl)methyl) (phenoxy)phosphoryl)oxy)ethyl) butanethioate], for which the IC50 at pY705-STAT3 in PBMC (pSTAT3, PBMC, Table 1114) is under 0.1 µM; against pY641-STAT6 in PBMC (pSTAT6, PBMC, Table 1114) it was 1 to 3 µM.

Consider `CCCC(=O)SCCOP(=O)(Oc1cccc2ccccc12)C(F)(F)c1ccc2sc(C(=O)N[C@H]3CCC[C@H]4CC[C@@H](C(=O)N5CC(c6cccnc6)C5)N4C3=O)cc2c1` (stereo partly drawn) [Compound 140, S-(2-(((difluoro(2-(((3S,6S,9aS)-5-oxo-3-(3-(pyridin-3-yl)azetidine-1-carbonyl)octahydro-1H-pyrrolo[1,2-a]azepin-6-yl)carbamoyl)benzo[b]thiophen-5-yl)methyl) (naphthalen-1-yloxy)phosphoryl)oxy)ethyl) butanethioate], for which the IC50 against pY705-STAT3 in PBMC (pSTAT3, PBMC, Table 1114) was under 0.1 µM; on pY641-STAT6 in PBMC (pSTAT6, PBMC, Table 1114), 1 to 3 µM.

Take `CN(C(=O)[C@@H]1CC[C@@H]2C/C=C\C[C@H](NC(=O)c3cc4cc(C(F)(F)P(=O)(OCOC(=O)C(C)(C)C)OCOC(=O)C(C)(C)C)ccc4[nH]3)C(=O)N21)c1ccccc1` [Compound 141, (((difluoro(2-(((3S,6S,10aR,Z)-3-(methyl (phenyl)carbamoyl)-5-oxo-1,2,3,5,6,7,10,10a-octahydropyrrolo [1,2-a]azocin-6-yl)carbamoyl)-1H-indol-5-yl)methyl)phosphoryl)bis (oxy))bis (methylene) bis(2,2-dimethylpropanoate)]: the IC50 at pY705-STAT3 in PBMC (setting [3]) and on pY641-STAT6 in PBMC (setting [4]) was 0.1 to 1 µM each time.

As to `CN(C(=O)[C@@H]1CC[C@@H]2CCCC[C@H](NC(=O)c3cc4cc(C(F)(F)P(=O)(OCOC(=O)C(C)(C)C)OCOC(=O)C(C)(C)C)ccc4[nH]3)C(=O)N21)c1ccccc1` [Compound 142, (((difluoro(2-(((3S,6S,10aS)-3-(methyl(phenyl)carbamoyl)-5-oxodecahydro-pyrrolo[1,2-a]azocin-6-yl)carbamoyl)-1H-indol-5-yl)methyl)phosphoryl)bis(oxy)) bis(methylene) bis(2,2-dimethylpropanoate)], the IC50 is 0.1 to 1 µM on pY705-STAT3 in PBMC (setting [3]) and under 0.1 µM on pY641-STAT6 in PBMC (setting [4]).

Take `CN(C)S(=O)(=O)N1CCN(C(=O)[C@@H]2CC[C@@H]3CCCC[C@H](NC(=O)c4cc5cc(C(F)(F)P(=O)(OCOC(=O)C(C)(C)C)OCOC(=O)C(C)(C)C)ccc5s4)C(=O)N32)CC1` [Compound 145, ((((2-(((3S,6S,10aS)-3-(4-(N,N-dimethylsulfamoyl)piperazine-1-carbonyl)-5-oxodecahydro-pyrrolo[1,2-a]azocin-6-yl)carbamoyl)benzo[b]thiophen-5-yl)difluoromethyl)phosphoryl)bis (oxy))bis (methylene) bis(2,2-dimethylpropanoate)]: the IC50 at pY705-STAT3 in PBMC (setting [3]) and on pY641-STAT6 in PBMC (setting [4]) was under 0.1 µM in each case.

For `CC(C)(C)C(=O)OCOP(=O)(OCOC(=O)C(C)(C)C)C(F)(F)c1ccc2sc(C(=O)N[C@@]3(C)CCCC[C@H]4CC[C@@H](C(=O)N5CC(c6ccccn6)C5)N4C3=O)cc2c1` [Compound 150, (((difluoro(2-(((3S,6S,10aS)-6-methyl-5-oxo-3-(3-(pyridin-2-yl)azetidine-1-carbonyl)decahydropyrrolo [1,2-a]azocin-6-yl)carbamoyl)benzo[b]thiophen-5-yl)methyl)phosphoryl)bis (oxy))bis (methylene) bis(2,2-dimethyl-propanoate)], the IC50 at pY705-STAT3 in PBMC (setting [3]) is 0.1 to 1 µM; at pY641-STAT6 in PBMC (setting [4]) it was over 3 µM.

For the compound `CC(C)OC(=O)OCOP(=O)(Cc1ccc2sc(C(=O)N[C@H]3CCCC4CC[C@@H](C(=O)N5CC(c6cccnc6)C5)N4C3=O)cc2c1)OCOC(=O)OC(C)C` (stereo partly drawn) [Compound 158, diisopropyl (((((2-(((3S,6S,9aS)-5-oxo-3-(3-(pyridin-3-yl)azetidine-1-carbonyl)octahydro-1H-pyrrolo[1,2-a]azepin-6-yl)carbamoyl)benzo [b]thiophen-5-yl)methyl)phosphoryl)bis (oxy))bis(methyl-ene))bis(carbonate)], the IC50 at pY705-STAT3 in PBMC (setting [3]) was under 0.1 µM; on pY641-STAT6 in PBMC (setting [4]) it was over 3 µM.
